Among the data in patent US20100173835A1, “Peptides for Treatment of Obesity” (Novo Nordisk A/S, priority 2008, published 2010) are Ki and solubility values, retold here.

In one data set the target is T1, human MC4 receptor (Homo sapiens, UniProt P32245).
T1 construct: expressed in transfected cells
The data set is described as follows: Assay (V) Melanocortin Receptor 4 (MC4) binding assay. The conditions noted are these: 125NDP-α-MSH binding, BHK cell membranes. Here is the method:
Assay (V)—Melanocortin Receptor 4 (MC4) Binding Assay
In vitro ^125NDP-α-MSH binding to recombinant BHK cells expressing human MC4 receptor (filtration assay).
The assay is performed in 5 ml minisorb vials (Sarstedt No. 55.526) or in 96-well filterplates (Millipore MADVN 6550), and using BHK cells expressing the human MC4 receptor using BHK cells stably expressing the human MC4 receptor. The membranes were prepared from frozen or fresh cells that were homogenized in 20 mM HEPES pH 7.1, 5 mM MgCl2 and 1 mg/ml bacitracin and centrifuged at 15000 rpm at 4° C., 10 min in a Sorvall RC 5B plus, SS-34 rotor. The supernatant was discarded, and the pellets were re-suspended in buffer, homogenized and centrifuged two more times. The final pellets were resuspended in the buffer mentioned above, and the protein concentration was measured and adjusted with buffer to 14 to 17 mg/ml and the membrane preparation were kept at −80° C. until assay. The assay was run directly on a dilution of this cell membrane suspension, without any further preparation. The BHK cell membranes are kept at −80° C. until assay, and the assay is run directly on a dilution of this cell membrane suspension, without further preparation. The suspension is diluted to give maximally 10% specific binding, i.e. to approx. 50-100 fold dilution. The assay is performed in a total volume of 200 μl: 50 μl of cell suspension, 50 μl of ^125NDP-α-MSH (≈79 pM in final concentration), 50 μl of test compound and 50 μl binding buffer (pH 7) mixed and incubated for 2 h at 25° C. [binding buffer: 25 mM HEPES, pH 7.0, 1 mM CaCl2, 1 mM MgSO4, 1 mM EGTA, 0.02% Bacitracin, 0.005% Tween™ 20 and 0.1% HSA or, alternatively, 0.1% ovalbumin (Sigma; catalogue No. A-5503)]. Test compounds are dissolved in DMSO and diluted in binding buffer. Radiolabelled ligand and membranes are diluted in binding buffer. The incubation is stopped by dilution with 2×100 μl ice-cold 0.9% NaCl. The radioactivity retained on the filters is counted using a Cobra II auto gamma counter.
(§1) The data are analysed by non-linear regression analysis of binding curves, using the Windows™ program GraphPad™ Prism (GraphPad Software, USA).

In the next data set the target is T2, MC1 receptor (Homo sapiens, UniProt Q01726).
T2 construct: expressed in transfected cells
The data set is described as follows: Assay (IV) Melanocortin Receptor 1 (MC1) binding assay. The method, then:
Assay (IV)—Melanocortin Receptor 1 (MC1) Binding Assay
The MC1 receptor binding assay is performed on BHK cell membranes stably expressing the MC1 receptor. The assay is performed in a total volume of 250 NI: 25 μl of ^125NDP-α-MSH (22 pM in final concentration), 25 μl of test compound/control and 200 μl of cell membrane (25 μg/ml). Test compounds are dissolved in DMSO. Radioactively labeled ligand, membranes and test compounds are diluted in buffer: 25 mM HEPES, pH 7.4, 0.1 mM CaCl2, 1 mM MgSO4, 1 mM EDTA, 0.1% HSA and 0.005% Tween™ 20. Alternatively, HSA may be substituted with ovalbumin. The samples are incubated at 30° C. for 90 min. in Costar round-bottom microtiter plates. Incubation is terminated by filtration on a Packard harvester filtermate. Rapid filtration through Packard Unifilter-96 GF/B filters pre-treated with polyethylenimine (PerkinElmer 6005277). The filters are washed with ice-cold 0.9% NaCl 8-10 times. The plates is air dried at app. 55° C. for 30 min, and 50 μl Microscint 0 (Packard, cat. No. 6013616) is added to each well. The plates are counted in a Topcounter (1 min/well).
as §1

The nature of data set [1]: Solubility data of compounds in water over the pH range. The format is physicochemical. Particulars: read-out: Conc (solubility in water).
The mark [2] stands for this setting: 125NDP-α-MSH binding, BHK cell membranes, read-out: Assay (IV) MC1 Ki.

Molecules are shown by their SMILES. In brackets after ≈: the same amount, converted by molar mass. Read-outs that look alike come from different tables or passages of the source. *1 amine or outer side, *2 acyl side, *3 side chain or, on linkers, in order; H or OH if unused. Where a SMILES comes first, the peptide text is derived from it. Bridges are numbered along the chain shown (N, C = ends). [ ]: non-standard residue; d: D form. The star is where a group is joined. Palmitoyl(16-(5-tetrazolyl)) = O=C(CCCCCCCCCCCCCCCc1nnn[nH]1)*; X2 = O=C(CCCCCCCCCCCCCCCc1nnn[nH]1)NS(=O)(=O)CCCC(=O)*; Lys(CH2CO2H)2 = N[C@@H](CCCCN(CC(=O)O)CC(=O)O)C(=O)O; X1 = O=C(O)CN(CC(=O)O)C[C@H](N[*:1])C(=O)[*:2]; C16 diacid = O=C(O)CCCCCCCCCCCCCCC(=O)*; Hyp = O=C(O)[C@@H]1C[C@@H](O)CN1; NTA = O=C(O)CN(CC(=O)O)CC(=O)*; Nle = CCCC[C@H](N)C(=O)O; Dab = NCC[C@H](N)C(=O)O; Dap = NC[C@H](N)C(=O)O; AEEA = NCCOCCOCC(=O)O; βAla = NCCC(=O)O

T1 sequence (P32245 whole entry): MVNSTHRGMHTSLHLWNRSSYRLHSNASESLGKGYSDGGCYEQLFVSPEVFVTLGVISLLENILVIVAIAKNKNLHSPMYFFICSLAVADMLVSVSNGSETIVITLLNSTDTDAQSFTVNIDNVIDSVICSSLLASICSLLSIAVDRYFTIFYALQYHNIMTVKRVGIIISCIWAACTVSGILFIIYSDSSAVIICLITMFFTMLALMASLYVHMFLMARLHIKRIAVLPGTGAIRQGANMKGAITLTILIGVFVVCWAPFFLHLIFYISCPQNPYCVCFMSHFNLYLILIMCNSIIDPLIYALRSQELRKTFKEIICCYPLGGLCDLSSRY
T2 sequence (Q01726 whole entry): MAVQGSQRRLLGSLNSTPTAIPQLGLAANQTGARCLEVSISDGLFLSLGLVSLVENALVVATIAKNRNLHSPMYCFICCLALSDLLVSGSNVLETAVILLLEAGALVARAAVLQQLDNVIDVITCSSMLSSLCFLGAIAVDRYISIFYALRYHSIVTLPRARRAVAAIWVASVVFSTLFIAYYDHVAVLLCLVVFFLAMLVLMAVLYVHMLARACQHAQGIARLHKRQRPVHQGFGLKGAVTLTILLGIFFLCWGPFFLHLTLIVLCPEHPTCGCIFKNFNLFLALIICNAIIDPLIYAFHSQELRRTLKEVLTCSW

The term Ki denotes a measure of affinity in units of concentration, obtained from inhibition or displacement. For the compound `CCCC[C@H](NC(=O)[C@H](CNC(=O)CN(CC(=O)O)CC(=O)O)NC(=O)[C@H](CO)NC(=O)[C@H](CCC(N)=O)NC(=O)[C@H](CO)NC(=O)CNC(=O)COCCOCCNC(=O)CCCCCCCCCCCCCCCc1nnn[nH]1)C(=O)N[C@H]1CCC(=O)NCCCC[C@@H](C(N)=O)NC(=O)[C@H](Cc2c[nH]c3ccccc23)NC(=O)[C@H](CCCNC(=N)N)NC(=O)[C@@H](Cc2ccccc2)NC(=O)[C@@H]2C[C@@H](O)CN2C1=O` [Example 4, (2-{2-[16-(Tetrazol-5-yl)hexadecanoylamino]ethoxy}ethoxy)acetyl-Gly-Ser-Gln-Ser-Dap(BCMA)-Nle-c[Glu-Hyp-D-Phe-Arg-Trp-Lys]-NH2] ({Palmitoyl(16-(5-tetrazolyl))-AEEA}-GSQS[Dap](NTA)[Nle]E[Hyp][dF]RWK-NH2; lactam 7-12), the figures for the Ki at human MC4 receptor (Assay (V) MC4 [Ki] (nM)) and on MC1 receptor were 5.67 nM and 4800 nM, respectively.

With `CCCC[C@H](NC(=O)[C@H](CN(CC(=O)O)CC(=O)O)NC(=O)[C@H](Cc1c[nH]cn1)NC(=O)[C@H](CCC(N)=O)NC(=O)[C@H](CO)NC(=O)CNC(=O)COCCOCCNC(=O)CCCCCCCCCCCCCCCc1nnn[nH]1)C(=O)N[C@H]1CCC(=O)NCCCC[C@@H](C(N)=O)NC(=O)[C@H](Cc2c[nH]c3ccccc23)NC(=O)[C@H](CCCNC(=N)N)NC(=O)[C@@H](Cc2ccccc2)NC(=O)[C@@H]2C[C@@H](O)CN2C1=O` [Example 6, (2-{2-[16-(Tetrazol-5-yl)hexadecanoylamino]ethoxy}ethoxy)acetyl-Gly-Ser-Gln-His-Dap(biscarboxymethyl)-Nle-c[Glu-Hyp-D-Phe-Arg-Trp-Lys]-NH2] ({Palmitoyl(16-(5-tetrazolyl))-AEEA}-GSQH[X1][Nle]E[Hyp][dF]RWK-NH2; lactam 7-12), the Ki stood at 2.9 nM at human MC4 receptor (Assay (V) MC4 [Ki] (nM)) and 5860 nM on MC1 receptor.

In the case of `CCCC[C@H](NC(=O)[C@H](CNC(=O)CN(CC(=O)O)CC(=O)O)NC(=O)[C@H](Cc1cnc[nH]1)NC(=O)[C@H](CCC(N)=O)NC(=O)[C@H](CO)NC(=O)CNC(=O)COCCOCCNC(=O)CCCCCCCCCCCCCCCc1nnn[nH]1)C(=O)N[C@H]1CCC(=O)NCCCC[C@@H](C(N)=O)NC(=O)[C@H](Cc2c[nH]c3ccccc23)NC(=O)[C@H](CCCN=C(N)N)NC(=O)[C@@H](Cc2ccccc2)NC(=O)[C@@H]2C[C@@H](O)CN2C1=O` [Example 9, (2-{2-[16-(Tetrazol-5-yl)hexadecanoylamino]ethoxy}ethoxy)acetyl-Gly-Ser-Gln-His-Dap(BCMA)-Nle-c[Glu-Hyp-D-Phe-Arg-Trp-Lys]-NH2] ({Palmitoyl(16-(5-tetrazolyl))-AEEA}-GSQH[Dap](NTA)[Nle]E[Hyp][dF]RWK-NH2; lactam 7-12), the Ki amounted to 0.58 nM on human MC4 receptor (Assay (V) MC4 [Ki] (nM)) and 2670 nM at MC1 receptor.

For the compound `CCCC[C@H](NC(=O)[C@H](CCNC(=O)CN(CC(=O)O)CC(=O)O)NC(=O)[C@H](Cc1c[nH]cn1)NC(=O)[C@H](CCC(N)=O)NC(=O)[C@H](CO)NC(=O)CNC(=O)COCCOCCNC(=O)CCCCCCCCCCCCCCCc1nnn[nH]1)C(=O)N[C@H]1CCC(=O)NCCCC[C@@H](C(N)=O)NC(=O)[C@H](Cc2c[nH]c3ccccc23)NC(=O)[C@H](CCCNC(=N)N)NC(=O)[C@@H](Cc2ccccc2)NC(=O)[C@@H]2C[C@@H](O)CN2C1=O` [Example 10, (2-{2-[16-(Tetrazol-5-yl)hexadecanoylamino]ethoxy}ethoxy)acetyl-Gly-Ser-Gln-His-Dab(BCMA)-Nle-c[Glu-Hyp-D-Phe-Arg-Trp-Lys]-NH2] ({Palmitoyl(16-(5-tetrazolyl))-AEEA}-GSQH[Dab](NTA)[Nle]E[Hyp][dF]RWK-NH2; lactam 7-12), the Ki on human MC4 receptor (read-out: Assay (V) MC4 [Ki]) was 1.05 nM; at MC1 receptor (setting [2]) it was over 10000 nM.

On to `CCCC[C@H](NC(=O)[C@H](CNC(=O)CN(CC(=O)O)CC(=O)O)NC(=O)[C@H](Cc1c[nH]cn1)NC(=O)[C@H](CCC(N)=O)NC(=O)[C@H](CO)NC(=O)CNC(=O)COCCOCCNC(=O)CCCS(=O)(=O)NC(=O)CCCCCCCCCCCCCCCc1nnn[nH]1)C(=O)N[C@H]1CCC(=O)NCCCC[C@@H](C(N)=O)NC(=O)[C@H](Cc2c[nH]c3ccccc23)NC(=O)[C@H](CCCNC(=N)N)NC(=O)[C@@H](Cc2ccccc2)NC(=O)[C@@H]2C[C@@H](O)CN2C1=O` [Example 11, [2-(2-{4-[16-(Tetrazol-5-yl)hexadecanoylsulfamoyl]butanoylamino}ethoxy)ethoxy]acetyl-Gly-Ser-Gln-His-Dap(BCMA)-Nle-c[Glu-Hyp-D-Phe-Arg-Trp-Lys]-NH2] ({X2-AEEA}-GSQH[Dap](NTA)[Nle]E[Hyp][dF]RWK-NH2; lactam 7-12), for which the figures for the Ki at human MC4 receptor (Assay (V) MC4 [Ki] (nM)) and at MC1 receptor were 3.25 nM and 9700 nM, respectively.

One may read the solubility as the concentration that dissolves in the medium under given conditions. Take `CCCC[C@H](NC(=O)[C@H](CCCCN(CC(=O)O)CC(=O)O)NC(=O)CCNC(=O)[C@H](Cc1c[nH]cn1)NC(=O)[C@H](CCC(N)=O)NC(=O)[C@H](CO)NC(=O)[C@H](CO)NC(=O)[C@H](CCC(N)=O)NC(=O)[C@@H](CO)NC(=O)CNC(=O)COCCOCCNC(=O)COCCOCCNC(=O)CCCCCCCCCCCCCCCc1nnn[nH]1)C(=O)N[C@H]1CCC(=O)NCCCC[C@@H](C(N)=O)NC(=O)[C@H](Cc2c[nH]c3ccccc23)NC(=O)[C@H](CCCNC(=N)N)NC(=O)[C@@H](Cc2ccccc2)NC(=O)[C@@H]2C[C@@H](O)CN2C1=O` [Example 12, (2-{2-[2-(2-{2-[16-(Tetrazol-5-yl)hexadecanoylamino]ethoxy}ethoxy)acetylamino]ethoxy}ethoxy)acetyl-Gly-D-Ser-Gln-Ser-Ser-Gln-His-β-Ala-Lys(biscarboxymethyl)-Nle-c[Glu-Hyp-D-Phe-Arg-Trp-Lys]-NH2] ({Palmitoyl(16-(5-tetrazolyl))-AEEA-AEEA}-G[dS]QSSQH[βAla][Lys(CH2CO2H)2][Nle]E[Hyp][dF]RWK-NH2; lactam 11-16): the solubility at 3 days in data set [1] (pH 3.1, pH 3.10) came to 409 µM (≈ 1060 µg/mL); in data set [1] (pH 4.11, pH 4.11), 374 µM (≈ 971 µg/mL); in data set [1] (pH 4.69, pH 4.69) it was 395 µM (≈ 1030 µg/mL); in data set [1] (pH 4.82, pH 4.82) it was 268 µM (≈ 696 µg/mL); in data set [1] (pH 5.07, pH 5.07), 136 µM (≈ 353 µg/mL); in data set [1] (pH 5.56, pH 5.56), 43 µM (≈ 112 µg/mL). For the same compound, the solubility at 3 days in data set [1] (pH 6.71, pH 6.71) amounted to 58 µM (≈ 151 µg/mL); in data set [1] (pH 6.71), 87 µM (≈ 226 µg/mL); in data set [1] (pH 6.99) it was 119 µM (≈ 309 µg/mL); in data set [1] (pH 7.15, pH 7.15), 210 µM (≈ 545 µg/mL); in data set [1] (pH 7.72, pH 7.72), 256 µM (≈ 665 µg/mL). At human MC4 receptor (Assay (V) MC4 [Ki] (nM)), this compound had a Ki of 2.85 nM.

In the case of `CCCC[C@H](NC(=O)[C@H](CNC(=O)CN(CC(=O)O)CC(=O)O)NC(=O)[C@H](Cc1c[nH]cn1)NC(=O)[C@H](CCC(N)=O)NC(=O)[C@H](CO)NC(=O)CNC(=O)COCCOCCNC(=O)CCCCCCCCCCCCCCC(=O)O)C(=O)N[C@H]1CCC(=O)NCCCC[C@@H](C(N)=O)NC(=O)[C@H](Cc2c[nH]c3ccccc23)NC(=O)[C@H](CCCNC(=N)N)NC(=O)[C@@H](Cc2ccccc2)NC(=O)[C@@H]2C[C@@H](O)CN2C1=O` [Example 13, {2-[2-(15-Carboxypentadecanoylamino)ethoxy]ethoxy}acetyl-Gly-Ser-Gln-His-Dap(BCMA)-Nle-c[Glu-Hyp-D-Phe-Arg-Trp-Lys]-NH2] ({C16 diacid-AEEA}-GSQH[Dap](NTA)[Nle]E[Hyp][dF]RWK-NH2; lactam 7-12), the results for the Ki on human MC4 receptor (read-out: Assay (V) MC4 [Ki]) and on MC1 receptor (setting [2]) were 3.6 nM and over 10000 nM, respectively.
